Data on 16 compounds can be found in US11078197B2, “5-membered and bicyclic heterocyclic amides as inhibitors of rock” (BRISTOL-MYERS SQUIBB COMPANY, priority 2017, dated 2021).

The test system of one assay is rat stroke model. The note with it: cited from earlier work.
Assay [1] deals with porcine model of IL-1 beta-induced coronary stenosis. The following applies: long term treatment; cited from earlier work.
The test system of a further assay is Dahl salt-sensitive rats. The following applies: congestive heart failure; cited from earlier work.
In assay [2] the test system is spontaneously hypertensive rat, renal hypertensive rat and deoxycortisone acetate salt hypertensive rat models. The following applies: cited from earlier work.
Assay [3] concerns neointimal formation in rats. The note with it: cited from earlier work.
The next assay addresses ROCK2 (Homo sapiens (Human), UniProt O75116). As to the kind of experiment: ROCK2 assay (peptide phosphorylation, LABCHIP 3000 Reader). In kind it is biochemical. The note with it: 5 μM ATP, 1.5 μM peptide substrate, dose-response. The method, then:
After incubation, the reaction was terminated by the addition of EDTA and the phosphorylated and non-phosphorylated peptides separated using a LABCHIP®3000 Reader (Caliper Life Sciences). […] Compounds were tested in dose-response format, and the inhibition of kinase activity was calculated at each concentration of compound. […] Representative Examples were tested in the ROCK2 assay described above and found having ROCK2 inhibitory activity.

Molecules are shown by their SMILES. Like-named read-outs stand apart in the source and are kept apart here.

ROCK2, sequence (O75116 whole entry, species assumed): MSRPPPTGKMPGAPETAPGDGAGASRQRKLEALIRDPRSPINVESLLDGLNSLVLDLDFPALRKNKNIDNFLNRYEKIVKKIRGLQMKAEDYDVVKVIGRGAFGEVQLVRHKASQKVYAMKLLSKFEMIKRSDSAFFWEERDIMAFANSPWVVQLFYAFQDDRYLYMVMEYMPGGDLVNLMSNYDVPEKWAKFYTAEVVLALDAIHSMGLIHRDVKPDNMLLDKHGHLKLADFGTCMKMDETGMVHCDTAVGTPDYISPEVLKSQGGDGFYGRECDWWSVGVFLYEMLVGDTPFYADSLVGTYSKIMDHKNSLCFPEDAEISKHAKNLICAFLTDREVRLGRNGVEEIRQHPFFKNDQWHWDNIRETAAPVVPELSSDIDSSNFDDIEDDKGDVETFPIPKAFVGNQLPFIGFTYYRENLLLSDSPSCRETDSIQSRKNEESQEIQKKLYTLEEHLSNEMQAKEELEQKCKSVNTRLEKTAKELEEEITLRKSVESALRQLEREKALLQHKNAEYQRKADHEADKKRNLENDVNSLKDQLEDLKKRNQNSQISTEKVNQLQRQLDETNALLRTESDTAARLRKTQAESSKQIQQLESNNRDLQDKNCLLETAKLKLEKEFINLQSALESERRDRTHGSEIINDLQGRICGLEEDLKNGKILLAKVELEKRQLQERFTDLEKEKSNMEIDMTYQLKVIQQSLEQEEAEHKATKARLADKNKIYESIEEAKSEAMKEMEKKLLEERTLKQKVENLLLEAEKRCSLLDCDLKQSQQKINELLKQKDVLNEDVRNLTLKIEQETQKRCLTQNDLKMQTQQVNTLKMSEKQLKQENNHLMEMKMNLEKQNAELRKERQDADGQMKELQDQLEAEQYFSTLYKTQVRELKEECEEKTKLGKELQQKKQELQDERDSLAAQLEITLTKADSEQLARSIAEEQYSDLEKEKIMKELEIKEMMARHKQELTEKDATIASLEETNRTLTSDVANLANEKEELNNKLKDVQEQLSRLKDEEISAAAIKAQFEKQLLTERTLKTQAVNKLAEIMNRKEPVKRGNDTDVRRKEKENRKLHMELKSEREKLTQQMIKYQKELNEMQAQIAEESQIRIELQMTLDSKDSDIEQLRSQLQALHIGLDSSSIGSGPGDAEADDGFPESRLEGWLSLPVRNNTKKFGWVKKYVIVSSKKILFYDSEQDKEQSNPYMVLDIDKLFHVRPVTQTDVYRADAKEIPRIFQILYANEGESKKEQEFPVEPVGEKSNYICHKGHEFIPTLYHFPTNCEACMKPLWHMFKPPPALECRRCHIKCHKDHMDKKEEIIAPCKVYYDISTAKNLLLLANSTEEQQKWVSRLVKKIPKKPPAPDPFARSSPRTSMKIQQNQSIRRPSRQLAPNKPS

Turning to `O=S(=O)(c1cccc2cnccc12)N1CCCNCC1` [fasudil], in the assay on rat stroke model, the “infarct size and neurologic deficit” value is “reduce both the infarct size and neurologic deficit”. Besides, in assay [1], the coronary constrictive remodeling result is given as “promote a regression of coronary constrictive remodeling” and the coronary stenosis result is “progressively reduce coronary stenosis”.

Turning to `C[C@@H](N)[C@H]1CC[C@H](C(=O)Nc2ccncc2)CC1` [Example Y-27632, Y-27632], the “ventricular hypertrophy, fibrosis and function” value in the assay on Dahl salt-sensitive rats is “improve ventricular hypertrophy, fibrosis and function”. Besides, the blood pressure result is recorded as “only a minor effect on blood pressure” in assay [2] (control rats) and “significantly decrease blood pressure” in assay [2] (three rat models of hypertension). Besides, in assay [3], the neointimal formation entry is on record as “inhibited neointimal formation”. `Cc1c(C(=O)N[C@H]2C[C@]3(C2)C[C@H](Oc2nn(C4CC4)cc2C(N)=O)C3)cnn1-c1ccc(F)cc1F` (stereo partly drawn) [Example 66, 1-cyclopropyl-3-{[(aR)-6-[1-(2,4-difluorophenyl)-5-methyl-1H-pyrazole-4-amido]spiro[3.3]heptan-2-yl]oxy}-1H-pyrazole-4-carboxamide] came in with an IC50 against ROCK2 of 0.225 µM.

At ROCK2, `COc1nc(O[C@H]2C[C@@]3(C[C@H](NC(=O)c4cnn5cc(OCC(F)(F)F)ccc45)C3)C2)c(C(N)=O)s1` (stereo partly drawn) [Example 117, 2-methoxy-4-{[(4s)-6-[6-(2,2,2-trifluoroethoxy)pyrazolo[1,5-a]pyridine-3-amido]spiro[3.3]heptan-2-yl]oxy}-1,3-thiazole-5-carboxamide] showed an IC50 of 0.0587 µM. The same measure, in the same setting: under `CC(C)(O)COc1ccc2c(C(=O)NC3CC4(C3)CC(Oc3nc5c(cc3C(N)=O)COCC5)C4)cnn2c1` [Example 12, 6-(2-hydroxy-2-methylpropoxy)-N-[(aR)-6-({3-carbamoyl-5H,7H,8H-pyrano[4,3-b]pyridin-2-yl}oxy)spiro[3.3]heptan-2-yl]pyrazolo[1,5-a]pyridine-3-carboxamide] stands 0.0401 µM; under `NC(=O)c1cn(C2CC2)nc1O[C@H]1C[C@@]2(C[C@H](NC(=O)c3nc(C(F)(F)F)n4cc(-c5ccc(F)nc5)ccc34)C2)C1` (stereo partly drawn) [Example 59, 1-cyclopropyl-3-{[(aR)-6-[6-(6-fluoropyridin-3-yl)-3-(trifluoromethyl)imidazo[1,5-a]pyridine-1-amido]spiro[3.3]heptan-2-yl]oxy}-1H-pyrazole-4-carboxamide], 0.0053 µM. Same read-out and setting: the same measure for `NC(=O)c1cn(C2CC2)nc1O[C@H]1C[C@@]2(C[C@H](NC(=O)c3nc(C(F)(F)F)n4ccccc34)C2)C1` (stereo partly drawn) [Example 58, 1-cyclopropyl-3-{[(aR)-6-[3-(trifluoromethyl)imidazo[1,5-a]pyridine-1-amido]spiro[3.3]heptan-2-yl]oxy}-1H-pyrazole-4-carboxamide]: 0.204 µM; for `NC(=O)c1cn(C2CC2)nc1O[C@H]1C[C@@]2(C[C@H](NC(=O)c3nc(C(F)(F)F)n4cc(Br)ccc34)C2)C1` (stereo partly drawn) [Example 60, 1-cyclopropyl-3-{[(aR)-6-[6-bromo-3-(trifluoromethyl)imidazo[1,5-a]pyridine-1-amido]spiro[3.3]heptan-2-yl]oxy}-1H-pyrazole-4-carboxamide]: 0.0355 µM; for `CC(C)(O)COc1ccc2c(C(=O)N[C@H]3C[C@]4(C3)C[C@H](Oc3nn5cc(C(F)(F)F)ccc5c3C(N)=O)C4)nn(C(F)F)c2c1` (stereo partly drawn) [Example 130, 1-(difluoromethyl)-6-(2-hydroxy-2-methylpropoxy)-N-[(4s)-6-{[3-carbamoyl-6-(trifluoromethyl)pyrazolo[1,5-a]pyridin-2-yl]oxy}spiro[3.3]heptan-2-yl]-1H-indazole-3-carboxamide]: 0.611 µM. At ROCK2, `NC(=O)c1c(O[C@H]2C[C@@]3(C[C@H](NC(=O)c4cnn5cc(OCC(F)F)ccc45)C3)C2)nn2cc(C(F)(F)F)ccc12` (stereo partly drawn) [Example 131, 2-{[(4s)-6-[6-(2,2-difluoroethoxy)pyrazolo[1,5-a]pyridine-3-amido]spiro[3.3]heptan-2-yl]oxy}-6-(trifluoromethyl)pyrazolo[1,5-a]pyridine-3-carboxamide] had an IC50 of 1.17 µM.

For `COc1nc(O[C@H]2C[C@@]3(C[C@H](NC(=O)c4cnn5cc(OCC(F)F)ccc45)C3)C2)c(C(N)=O)s1` (stereo partly drawn) [Example 115, 2-methoxy-4-{[(4s)-6-[6-(2,2-difluoroethoxy)pyrazolo[1,5-a]pyridine-3-amido]spiro[3.3]heptan-2-yl]oxy}-1,3-thiazole-5-carboxamide], on ROCK2, the midpoint of inhibition, the IC50, lay at 0.0312 µM. Regarding `Cn1ncc2cc(C(N)=O)c(O[C@H]3C[C@@]4(C[C@H](NC(=O)c5cc(-c6ccc(C#N)cc6)n(C(F)F)n5)C4)C3)nc21` (stereo partly drawn) [Example 155, 5-(4-cyanophenyl)-1-(difluoromethyl)-N-[(4s)-6-({5-carbamoyl-1-methyl-1H-pyrazolo[3,4-b]pyridin-6-yl}oxy)spiro[3.3]heptan-2-yl]-1H-pyrazole-3-carboxamide], on ROCK2, the IC50 turned out to be 0.0027 µM. Still for that read-out and setting: under `NC(=O)c1c(O[C@H]2C[C@@]3(C[C@H](NC(=O)c4cnn5cc(OCC(F)F)ccc45)C3)C2)nn2cc(F)ccc12` (stereo partly drawn) [Example 127, 6-fluoro-2-{[(4s)-6-[6-(2,2-difluoroethoxy)pyrazolo[1,5-a]pyridine-3-amido]spiro[3.3]heptan-2-yl]oxy}pyrazolo[1,5-a]pyridine-3-carboxamide] stands 0.113 µM; under `Cc1sc2cc(C(N)=O)c(O[C@H]3CC4(C[C@H](NC(=O)c5nnc(NCC(C)C)s5)C4)C3)nc2c1C` (stereo partly drawn) [Example 162, 5-[(2-methylpropyl)amino]-N-[(4s)-6-({6-carbamoyl-2,3-dimethylthieno[3,2-b]pyridin-5-yl}oxy)spiro[3.3]heptan-2-yl]-1,3,4-thiadiazole-2-carboxamide], 0.162 µM; under `COc1ccc(-n2ncc(C(=O)N[C@H]3C[C@]4(C3)C[C@H](Oc3nn(C5CC5)cc3C(N)=O)C4)c2C)cn1` (stereo partly drawn) [Example 50, 1-cyclopropyl-3-{[(aR)-6-[1-(6-methoxypyridin-3-yl)-5-methyl-1H-pyrazole-4-amido]spiro[3.3]heptan-2-yl]oxy}-1H-pyrazole-4-carboxamide], 0.322 µM. Same read-out and setting: under `CC(C)(O)COc1ccc2c(C(=O)N[C@H]3C[C@]4(C3)C[C@H](Oc3nn(C(F)F)cc3C(N)=O)C4)cnn2c1C1CC1` (stereo partly drawn) [Example 30, 3-({(aR)-6-[7-cyclopropyl-6-(2-hydroxy-2-methylpropoxy)pyrazolo [1,5-a]pyridine-3-aimdo]spiro[3.3]heptan-2-yl}oxy)-1-(difluoromethyl)-1H-pyrazole-4-carboxamide] stands 0.0077 µM.
